In ChEMBL document CHEMBL5465560, “Selectivity Literature for EUbOPEN Chemogenomic Library” (2024) one finds % of control and % of inhibition data, which are given here for 3 compounds.

Test [1] concerns the target Mast/stem cell growth factor receptor Kit (Homo sapiens, UniProt P10721). As to conditions: at 10 µM.
Test [2] addresses T1, Serine/threonine-protein kinase D2 (Homo sapiens) (UniProt Q9BZL6).
T1 sequence (whole entry): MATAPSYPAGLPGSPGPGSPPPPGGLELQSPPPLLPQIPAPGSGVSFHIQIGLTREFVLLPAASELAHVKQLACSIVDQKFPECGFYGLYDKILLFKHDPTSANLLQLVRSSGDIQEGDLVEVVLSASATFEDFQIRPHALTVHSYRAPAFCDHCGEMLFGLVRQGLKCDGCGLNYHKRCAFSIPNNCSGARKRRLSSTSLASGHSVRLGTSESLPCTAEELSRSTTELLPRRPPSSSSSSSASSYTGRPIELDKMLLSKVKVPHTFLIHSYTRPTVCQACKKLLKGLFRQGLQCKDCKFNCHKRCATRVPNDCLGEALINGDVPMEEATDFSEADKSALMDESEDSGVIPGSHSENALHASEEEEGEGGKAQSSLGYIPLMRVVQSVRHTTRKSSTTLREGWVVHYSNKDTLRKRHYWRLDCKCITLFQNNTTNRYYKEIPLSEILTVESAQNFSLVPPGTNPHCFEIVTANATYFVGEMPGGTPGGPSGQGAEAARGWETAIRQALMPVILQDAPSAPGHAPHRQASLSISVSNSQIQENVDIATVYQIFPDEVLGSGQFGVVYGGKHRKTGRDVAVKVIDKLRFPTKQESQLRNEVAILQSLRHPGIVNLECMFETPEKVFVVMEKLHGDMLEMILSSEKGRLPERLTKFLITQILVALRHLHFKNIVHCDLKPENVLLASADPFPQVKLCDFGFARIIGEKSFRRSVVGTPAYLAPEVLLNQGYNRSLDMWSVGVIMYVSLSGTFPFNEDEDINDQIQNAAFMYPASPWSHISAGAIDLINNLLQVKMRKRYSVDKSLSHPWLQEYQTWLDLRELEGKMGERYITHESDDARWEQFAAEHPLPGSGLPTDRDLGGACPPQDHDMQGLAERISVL
Description: Selectivity interaction (Millipore kinase profiler) EUB0000124b PRKD2. As to conditions: at 10 µM.

Test [3] has as its target T2, Ephrin type-A receptor 8 (Homo sapiens) (UniProt P29322).
T2 sequence (whole entry): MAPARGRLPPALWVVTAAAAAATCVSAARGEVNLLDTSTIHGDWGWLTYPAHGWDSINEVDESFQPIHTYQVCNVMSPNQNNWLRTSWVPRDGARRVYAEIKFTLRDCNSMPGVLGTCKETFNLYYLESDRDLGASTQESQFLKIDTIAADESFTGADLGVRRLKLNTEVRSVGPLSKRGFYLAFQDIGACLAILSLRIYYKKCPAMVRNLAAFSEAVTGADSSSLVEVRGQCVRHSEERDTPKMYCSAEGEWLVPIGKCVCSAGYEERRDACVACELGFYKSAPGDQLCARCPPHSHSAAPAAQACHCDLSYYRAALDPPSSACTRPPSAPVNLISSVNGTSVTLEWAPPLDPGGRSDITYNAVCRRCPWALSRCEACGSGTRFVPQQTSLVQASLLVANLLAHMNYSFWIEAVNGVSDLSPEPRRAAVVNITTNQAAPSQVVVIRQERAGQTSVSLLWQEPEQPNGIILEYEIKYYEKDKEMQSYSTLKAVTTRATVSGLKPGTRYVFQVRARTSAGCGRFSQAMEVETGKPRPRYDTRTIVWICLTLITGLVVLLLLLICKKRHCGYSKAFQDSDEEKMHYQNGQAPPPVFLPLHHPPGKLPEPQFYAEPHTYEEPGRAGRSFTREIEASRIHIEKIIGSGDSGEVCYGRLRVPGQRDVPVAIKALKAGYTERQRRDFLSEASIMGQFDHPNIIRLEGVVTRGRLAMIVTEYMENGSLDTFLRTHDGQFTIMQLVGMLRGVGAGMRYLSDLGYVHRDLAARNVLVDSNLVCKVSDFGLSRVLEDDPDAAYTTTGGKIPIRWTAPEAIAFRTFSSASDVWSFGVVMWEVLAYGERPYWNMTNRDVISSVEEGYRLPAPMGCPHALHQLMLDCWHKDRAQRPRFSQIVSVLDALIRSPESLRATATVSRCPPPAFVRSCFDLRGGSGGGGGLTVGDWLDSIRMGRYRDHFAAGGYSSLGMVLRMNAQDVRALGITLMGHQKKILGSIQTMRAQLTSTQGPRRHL
Briefly: Selectivity interaction (SelectScreen profiling (Invitrogen)) EUB0000607a EPHA8. As to conditions: at 2 µM.

Mast/stem cell growth factor receptor Kit, sequence (P10721 whole entry): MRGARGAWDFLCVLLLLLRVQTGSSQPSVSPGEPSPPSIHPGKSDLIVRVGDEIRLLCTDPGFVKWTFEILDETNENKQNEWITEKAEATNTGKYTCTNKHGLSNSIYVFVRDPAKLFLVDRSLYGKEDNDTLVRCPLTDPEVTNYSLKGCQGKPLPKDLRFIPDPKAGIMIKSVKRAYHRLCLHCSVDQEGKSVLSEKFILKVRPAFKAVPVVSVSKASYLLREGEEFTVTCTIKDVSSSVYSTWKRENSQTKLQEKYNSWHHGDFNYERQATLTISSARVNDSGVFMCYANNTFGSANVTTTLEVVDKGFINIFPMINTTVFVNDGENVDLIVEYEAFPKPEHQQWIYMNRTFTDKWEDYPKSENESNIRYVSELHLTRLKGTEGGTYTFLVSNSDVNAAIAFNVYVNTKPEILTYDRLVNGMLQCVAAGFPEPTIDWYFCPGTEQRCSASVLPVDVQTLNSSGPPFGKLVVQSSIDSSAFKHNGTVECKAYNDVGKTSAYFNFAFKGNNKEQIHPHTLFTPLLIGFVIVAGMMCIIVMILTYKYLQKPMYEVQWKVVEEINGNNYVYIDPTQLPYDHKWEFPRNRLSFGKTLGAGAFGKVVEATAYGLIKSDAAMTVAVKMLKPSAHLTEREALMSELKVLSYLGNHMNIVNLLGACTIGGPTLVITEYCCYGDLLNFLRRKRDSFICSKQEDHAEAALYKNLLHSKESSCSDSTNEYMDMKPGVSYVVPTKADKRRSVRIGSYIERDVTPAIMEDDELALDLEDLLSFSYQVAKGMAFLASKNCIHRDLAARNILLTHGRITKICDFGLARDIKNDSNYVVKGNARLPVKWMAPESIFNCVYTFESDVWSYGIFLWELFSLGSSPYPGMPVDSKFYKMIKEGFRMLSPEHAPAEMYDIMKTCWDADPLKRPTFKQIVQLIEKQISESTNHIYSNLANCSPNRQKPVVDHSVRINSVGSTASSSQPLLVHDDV

In test [1], `CCN(CC)CCCCNc1ncc2cc(-c3cc(OC)cc(OC)c3)c(NC(=O)NC(C)(C)C)nc2n1` returned a % of control of 100%. For `CC(=O)Nc1cccc(-n2c(=O)n(C3CC3)c(=O)c3c(Nc4ccc(I)cc4F)n(C)c(=O)c(C)c32)c1`, the % of control in test [2] was found to be 98%. On to `CNC(=O)Nc1ccc(-c2nc(N3CC4CCC(C3)O4)c3cnn(C4CCC5(CC4)OCCO5)c3n2)cc1`, for which the % of inhibition in test [3] stood at 24%.
